ChEMBL document CHEMBL6127153, “Hybrids of Membrane-Translocating Antimicrobial Peptides Show Enhanced Activity through Membrane Permeabilization” (ACS Med Chem Lett, 2024)
Converted amounts (≈) assume the structure as drawn. The source made the active and inactive calls. The calls are words filed in the database; no cut-off is given here.

Tests used:
[1] = tested on: Cell membrane; experiment: Induction of membrane translocation in Escherichia coli spheroplasts assessed as increase in fluorescence intensity using FITC-labeled compound by confocal microscopy; type: subcellular
[2] = tested on: Bacillus subtilis; experiment: Antibacterial activity against Bacillus subtilis ATCC6051 assessed as inhibition of bacterial growth at 100 uM incubated for 3 hrs by radial diffusion assay; type: functional, organism-based
[3] = tested on: Cell membrane; experiment: Induction of membrane permeabilization in Escherichia coli assessed as increase in fluorescence intensity at 2 uM by PI staining based fluorescence spectrophotometric analysis; type: subcellular
[4] = tested on: HEK293; experiment: Cytotoxicity against HEK293 cells assessed as effect on cell metabolic activity at 18.2 uM incubated for overnight by MTS assay; type: toxicity, cell-based; conditions: human, hek293, 18.2 µM
[5] = tested on: Escherichia coli; experiment: Antibacterial activity against Escherichia coli Top10 assessed as inhibition of bacterial growth at 100 uM incubated for 3 hrs by radial diffusion assay; type: functional, organism-based
[6] = tested on: Bacillus subtilis; experiment: Antibacterial activity against Bacillus subtilis ATCC6051 assessed as inhibition of bacterial growth incubated for 1 hr followed by TSB addition and measured after 18 to 24 hrs by microbroth dilution assay; type: functional; conditions: time 19-25 hrs

SMILES | Activity [1] | Activity [3] | MIC [6] [µM] | Activity [2] | Activity [4] | Activity [5]
CC[C@H](C)[C@H](NC(=O)[C@H](CCCNC(=N)N)NC(=O)[C@@H](NC(=O)[C@H](CCCCN)NC(=O)[C@H](CCCCN)NC(=O)[C@H](CC(N)=O)NC(=O)[C@H](CC(=O)O)NC(=O)[C@H](CCCNC(=N)N)NC(=O)[C@H](C)NC(=O)[C@H](CCCCN)NC(=O)[C@H](CCCNC(=N)N)NC(=O)[C@H](CC(C)C)NC(=O)[C@H](CC(C)C)NC(=O)[C@H](CCCNC(=N)N)NC(=O)[C@H](Cc1cnc[nH]1)NC(=O)[C@@H](NC(=O)[C@H](CCCNC(=N)N)NC(=O)CNC(=O)[C@@H](NC(=O)[C@@H]1CCCN1C(=O)[C@H](Cc1c[nH]c2ccccc12)NC(=O)[C@H](CCC(N)=O)NC(=O)[C@H](CC(C)C)NC(=O)CNC(=O)[C@H](C)NC(=O)[C@H](CCCNC(=N)N)NC(=O)[C@H](CO)NC(=O)[C@H](CO)NC(=O)[C@H](CCCNC(=N)N)NC(=O)[C@@H](N)[C@@H](C)O)C(C)C)C(C)C)[C@@H](C)O)C(=O)N[C@@H](Cc1c[nH]c2ccccc12)C(=O)N1CCC[C@H]1C(=O)N[C@@H](CCCNC(=N)N)C(=O)N[C@@H](Cc1cnc[nH]1)C(=O)N[C@@H](CC(C)C)C(=O)N[C@@H](CCC(N)=O)C(=O)N[C@@H](CC(C)C)C(=O)N[C@@H](C)C(=O)N[C@H](C(=O)N[C@@H](CCCNC(=N)N)C(=O)N[C@@H](CC(N)=O)C(=O)O)C(C)C | Active | Active |  | Active | Non-Toxic | Active
CC[C@H](C)[C@H](NC(=O)[C@H](CCCNC(=N)N)NC(=O)[C@@H](NC(=O)[C@H](CCCCN)NC(=O)[C@H](CCCCN)NC(=O)[C@H](CC(N)=O)NC(=O)[C@H](CC(=O)O)NC(=O)[C@H](CCCNC(=N)N)NC(=O)[C@H](C)NC(=O)[C@@H]1CCCN1C(=O)[C@H](CCCCN)NC(=O)[C@H](CCCNC(=N)N)NC(=O)[C@H](CC(C)C)NC(=O)[C@H](CC(C)C)NC(=O)[C@H](CCCNC(=N)N)NC(=O)[C@H](Cc1cnc[nH]1)NC(=O)[C@@H](NC(=O)[C@H](CCCNC(=N)N)NC(=O)CNC(=O)[C@@H](NC(=O)[C@@H]1CCCN1C(=O)[C@H](Cc1c[nH]c2ccccc12)NC(=O)[C@H](CCC(N)=O)NC(=O)[C@H](CC(C)C)NC(=O)CNC(=O)[C@H](C)NC(=O)[C@H](CCCNC(=N)N)NC(=O)[C@H](CO)NC(=O)[C@H](CO)NC(=O)[C@H](CCCNC(=N)N)NC(=O)[C@@H](N)[C@@H](C)O)C(C)C)C(C)C)[C@@H](C)O)C(=O)N[C@@H](Cc1c[nH]c2ccccc12)C(=O)N1CCC[C@H]1C(=O)N[C@@H](CCCNC(=N)N)C(=O)N[C@@H](Cc1cnc[nH]1)C(=O)N[C@@H](CC(C)C)C(=O)N[C@@H](CCC(N)=O)C(=O)N[C@@H](CC(C)C)C(=O)N[C@@H](C)C(=O)N[C@H](C(=O)N[C@@H](CCCNC(=N)N)C(=O)N[C@@H](CC(N)=O)C(=O)O)C(C)C | inactive | Active |  | Active | Non-Toxic | Active
CC(C)C[C@H](NC(=O)CNC(=O)[C@H](C)NC(=O)[C@H](CCCNC(=N)N)NC(=O)[C@H](CO)NC(=O)[C@H](CO)NC(=O)[C@H](CCCNC(=N)N)NC(=O)[C@@H](N)[C@@H](C)O)C(=O)N[C@@H](CCC(N)=O)C(=O)N[C@@H](Cc1c[nH]c2ccccc12)C(=O)N1CCC[C@H]1C(=O)N[C@H](C(=O)NCC(=O)N[C@@H](CCCNC(=N)N)C(=O)N[C@H](C(=O)N[C@@H](Cc1cnc[nH]1)C(=O)N[C@@H](CCCNC(=N)N)C(=O)N[C@@H](CC(C)C)C(=O)N[C@@H](CC(C)C)C(=O)N[C@@H](CCCNC(=N)N)C(=O)N[C@@H](CCCCN)C(=O)O)C(C)C)C(C)C | Active | Active | 18.2 (≈ 45 µg/mL) | Active | Non-Toxic | Active
CC[C@H](C)[C@H](NC(=O)[C@H](CCCNC(=N)N)NC(=O)[C@@H](NC(=O)[C@H](CCCCN)NC(=O)[C@H](CCCCN)NC(=O)[C@H](CC(N)=O)NC(=O)[C@H](CC(=O)O)NC(=O)[C@H](CCCNC(=N)N)NC(=O)[C@H](C)N)[C@@H](C)O)C(=O)N[C@@H](Cc1c[nH]c2ccccc12)C(=O)N1CCC[C@H]1C(=O)N[C@@H](CCCNC(=N)N)C(=O)N[C@@H](Cc1cnc[nH]1)C(=O)N[C@@H](CC(C)C)C(=O)N[C@@H](CCC(N)=O)C(=O)N[C@@H](CC(C)C)C(=O)N[C@@H](C)C(=O)N[C@H](C(=O)N[C@@H](CCCNC(=N)N)C(=O)N[C@@H](CC(N)=O)C(=O)N1CCC[C@H]1C(=O)N[C@H](C(=O)N[C@@H](CCCNC(=N)N)C(=O)N[C@@H](CO)C(=O)N[C@@H](CO)C(=O)N[C@@H](CCCNC(=N)N)C(=O)N[C@@H](C)C(=O)NCC(=O)N[C@@H](CC(C)C)C(=O)N[C@@H](CCC(N)=O)C(=O)N[C@@H](Cc1c[nH]c2ccccc12)C(=O)N1CCC[C@H]1C(=O)N[C@H](C(=O)NCC(=O)N[C@@H](CCCNC(=N)N)C(=O)N[C@H](C(=O)N[C@@H](Cc1cnc[nH]1)C(=O)N[C@@H](CCCNC(=N)N)C(=O)N[C@@H](CC(C)C)C(=O)N[C@@H](CC(C)C)C(=O)N[C@@H](CCCNC(=N)N)C(=O)N[C@@H](CCCCN)C(=O)O)C(C)C)C(C)C)[C@@H](C)O)C(C)C | Active | Active |  | Active | Non-Toxic | Active

More lines, main results first:

Activity [1] | Activity [3] | MIC [6] [µM] | SMILES | Activity [2] | Activity [4] | Activity [5]
Active | Active |  | CC[C@H](C)[C@H](NC(=O)[C@H](CCCNC(=N)N)NC(=O)[C@@H](NC(=O)[C@H](CCCCN)NC(=O)[C@H](CCCCN)NC(=O)[C@H](CC(N)=O)NC(=O)[C@H](CC(=O)O)NC(=O)[C@H](CCCNC(=N)N)NC(=O)[C@H](C)N)[C@@H](C)O)C(=O)N[C@@H](Cc1c[nH]c2ccccc12)C(=O)N1CCC[C@H]1C(=O)N[C@@H](CCCNC(=N)N)C(=O)N[C@@H](Cc1cnc[nH]1)C(=O)N[C@@H](CC(C)C)C(=O)N[C@@H](CCC(N)=O)C(=O)N[C@@H](CC(C)C)C(=O)N[C@@H](C)C(=O)N[C@H](C(=O)N[C@@H](CCCNC(=N)N)C(=O)N[C@@H](CC(N)=O)C(=O)N[C@@H](C)C(=O)N[C@H](C(=O)N[C@@H](CCCNC(=N)N)C(=O)N[C@@H](CO)C(=O)N[C@@H](CO)C(=O)N[C@@H](CCCNC(=N)N)C(=O)N[C@@H](C)C(=O)NCC(=O)N[C@@H](CC(C)C)C(=O)N[C@@H](CCC(N)=O)C(=O)N[C@@H](Cc1c[nH]c2ccccc12)C(=O)N1CCC[C@H]1C(=O)N[C@H](C(=O)NCC(=O)N[C@@H](CCCNC(=N)N)C(=O)N[C@H](C(=O)N[C@@H](Cc1cnc[nH]1)C(=O)N[C@@H](CCCNC(=N)N)C(=O)N[C@@H](CC(C)C)C(=O)N[C@@H](CC(C)C)C(=O)N[C@@H](CCCNC(=N)N)C(=O)N[C@@H](CCCCN)C(=O)O)C(C)C)C(C)C)[C@@H](C)O)C(C)C | Active | Non-Toxic | Active
Active | Active |  | CC[C@H](C)[C@H](NC(=O)[C@H](CCCNC(=N)N)NC(=O)[C@@H](NC(=O)[C@H](CCCCN)NC(=O)[C@H](CCCCN)NC(=O)[C@H](CC(N)=O)NC(=O)[C@H](CC(=O)O)NC(=O)[C@H](CCCNC(=N)N)NC(=O)[C@H](C)NC(=O)[C@H](C)NC(=O)[C@H](CCCCN)NC(=O)[C@H](CCCNC(=N)N)NC(=O)[C@H](CC(C)C)NC(=O)[C@H](CC(C)C)NC(=O)[C@H](CCCNC(=N)N)NC(=O)[C@H](Cc1cnc[nH]1)NC(=O)[C@@H](NC(=O)[C@H](CCCNC(=N)N)NC(=O)CNC(=O)[C@@H](NC(=O)[C@@H]1CCCN1C(=O)[C@H](Cc1c[nH]c2ccccc12)NC(=O)[C@H](CCC(N)=O)NC(=O)[C@H](CC(C)C)NC(=O)CNC(=O)[C@H](C)NC(=O)[C@H](CCCNC(=N)N)NC(=O)[C@H](CO)NC(=O)[C@H](CO)NC(=O)[C@H](CCCNC(=N)N)NC(=O)[C@@H](N)[C@@H](C)O)C(C)C)C(C)C)[C@@H](C)O)C(=O)N[C@@H](Cc1c[nH]c2ccccc12)C(=O)N1CCC[C@H]1C(=O)N[C@@H](CCCNC(=N)N)C(=O)N[C@@H](Cc1cnc[nH]1)C(=O)N[C@@H](CC(C)C)C(=O)N[C@@H](CCC(N)=O)C(=O)N[C@@H](CC(C)C)C(=O)N[C@@H](C)C(=O)N[C@H](C(=O)N[C@@H](CCCNC(=N)N)C(=O)N[C@@H](CC(N)=O)C(=O)O)C(C)C | Active | Non-Toxic | Active
Active | Active |  | CC[C@H](C)[C@H](NC(=O)[C@H](CCCNC(=N)N)NC(=O)[C@@H](NC(=O)[C@H](CCCCN)NC(=O)[C@H](CCCCN)NC(=O)[C@H](CC(N)=O)NC(=O)[C@H](CC(=O)O)NC(=O)[C@H](CCCNC(=N)N)NC(=O)[C@H](C)N)[C@@H](C)O)C(=O)N[C@@H](Cc1c[nH]c2ccccc12)C(=O)N1CCC[C@H]1C(=O)N[C@@H](CCCNC(=N)N)C(=O)N[C@@H](Cc1cnc[nH]1)C(=O)N[C@@H](CC(C)C)C(=O)N[C@@H](CCC(N)=O)C(=O)N[C@@H](CC(C)C)C(=O)N[C@@H](C)C(=O)N[C@H](C(=O)N[C@@H](CCCNC(=N)N)C(=O)N[C@@H](CC(N)=O)C(=O)N[C@H](C(=O)N[C@@H](CCCNC(=N)N)C(=O)N[C@@H](CO)C(=O)N[C@@H](CO)C(=O)N[C@@H](CCCNC(=N)N)C(=O)N[C@@H](C)C(=O)NCC(=O)N[C@@H](CC(C)C)C(=O)N[C@@H](CCC(N)=O)C(=O)N[C@@H](Cc1c[nH]c2ccccc12)C(=O)N1CCC[C@H]1C(=O)N[C@H](C(=O)NCC(=O)N[C@@H](CCCNC(=N)N)C(=O)N[C@H](C(=O)N[C@@H](Cc1cnc[nH]1)C(=O)N[C@@H](CCCNC(=N)N)C(=O)N[C@@H](CC(C)C)C(=O)N[C@@H](CC(C)C)C(=O)N[C@@H](CCCNC(=N)N)C(=O)N[C@@H](CCCCN)C(=O)O)C(C)C)C(C)C)[C@@H](C)O)C(C)C | Active | Non-Toxic | Active
